Experimental data as given in patent publication US11096910B2, “Metabolically robust analogs of CYP-eicosanoids for the treatment of cardiac disease” (OMEICOS THERAPEUTICS GMBH, priority 2015, dated 2021).
≈ marks a conversion by molar mass, not a printed value. Where two headings read alike, the source gives them in different places.

Tests used:
male B16 mice = test: Atrial fibrillation induced by programmed electrical stimulation in a mouse model of moderate cardiac hypertrophy; assay type: in vivo
Experimental: Study design: To gain insight into in-vivo effect of synthetic 17,18-EEQ-agonists, atrial fibrillation studies were performed in male B16 mice as described in Westphal, C. et al., PLoS ONE. 2013, 8(8): e73490. Briefly, moderate cardiac hypertrophy was induced by continuous infusion of isoproterenol via subcutaneously implanted osmotic minipumps (Alzet) at a rate of 40 mg/kg/d for two weeks. After two weeks of treatment, ECG and electrophysiological data were recorded. Programmed electrical stimulation (PES) was performed in the right atrium or right ventricle using a digital electrophysiology lab (EP Tracer; CardioTek) to determine refractory periods and arrhythmia inducibility. Atrial arrhythmias were defined as fast (>800 bpm) electrical activity in the right atrial electrograms, with ECG P waves different to normal sinus rhythm and subsequent fast, but physiological activation of the ventricles (ECG R wave and right ventricular electrograms similar to normal sinus rhythm). Atrial fibrillation was defined as fast, irregular activity in the right atrial electrograms with irregular conduction to the ventricles (high variability of R—R intervals). Ventricular arrhythmias were defined by fast (>800 bpm) activity originating from the ventricular myocardium (change in morphology of ECG R waves and local right ventricular electrograms compared to normal sinus rhythm). During inhalation anesthesia with isoflurane (2% with 360 ml/min air flow; Univentor 400 anesthesia unit), the animals' body temperature was kept constant at 37° C. using a homeothermic blanket control unit (Hugo Sachs Elektronik, Harvard Apparatus) with rectal temperature control. After preparation of the right jugular vein, a 2 French octapolar electrophysiology catheter (CIB'ER mouse cath; NuMed) was placed in the right heart, including atrium and ventricle. PES was performed using a standardized protocol that included trains of 10 basal stimuli (S1) followed by up to 3 extra stimuli (S2-S4), delivered with a coupling interval decreasing in steps of 5 ms until ventricular or atrial refractoriness was reached. The stimulation procedures were repeated at three different basal cycle lengths (100 ms, 90 ms, 80 ms) with each animal. Occurrence and duration of inducible arrhythmias were documented. Only stimulation protocols with reproducible arrhythmias longer than five consecutive beats in ventricle and episodes longer than 350 ms in the atria were considered positive. “Arrhythmia inducibility” was calculated as the percentage of effective (positive) out of total protocols applied. Accordingly, the arrhythmia inducibility of individual animals could take a value of 0, 33, 66 or 100%. […]

Aqueous solubility = assay type: physicochemical; conditions: for solubility at 24 h: deionised water, 37 °C, pH 5.9, water, thermodynamic from solid, pH 5.90, 24 hours agitation
Experimental: Known amounts of the compounds were suspended by agitation for 24 hours. The filtrates were isolated and content of the appropriate compounds was determined by HPLC analysis.

[1] = Plasma pharmacokinetics after single intravenous and oral administration; design: species or system male C57BL/6 mice; conditions: male, C57BL/6, mouse, in vivo
Experimental: To gain insight into pharmacological properties of synthetic 17,18-EEQ agonists pharmacokinetic studies were performed with two selected compounds (Comp-02 and Comp-06). These compounds were pharmacologically evaluated in plasma after single intravenous and oral administration. Therefore, male C57BL/6 mice (Janvier Labs (France), n=12 per group) were administered to the test item at a dose of 2 mg/kg (i.v.) and 8 mg/kg (p.o.), respectively. Intravenous application of Comp-02 (sodium salt in isotonic salt solution) and Comp-06 (free acid in DMSO/PEG400 20:80) was performed via the tail vein, and for oral administration via gavage. […] Blood sampling was of 100 μl were obtained at two different time point for each mouse (0.083/2 h, 0.25/4 h, 0.5/8 h and 1/24 h). Biological samples were subjected to an extraction procedure (40 μl Acetonitril+22.4 μl sample, shaking, 10 min centrifugation at 6000×g at room temperature, dilution of 50 μl supernatant 1:1 with water). For analysis 20 μl of sample were injected into the LC-MS, Accela 1250 UHPLC system, Accela Open Autosampler, Q-Exactive mass spectrometer (Thermo Fisher Scientific). Appropriate samples were used as controls: zero sample, calibration standard and QC sample. The pharmacokinetic analysis were performed applying a non-compartment model using the Kinetica 5.0 software (Thermo Scientific, Waltham, USA). All given parameters were obtained by trapezoid area calculation.

[2] = test system: isolated mouse hearts of 12-14 week old male C57BL6/n animals; test: Ischemia-reperfusion of isolated Langendorff-perfused mouse hearts (Example 11)
Experimental: Study design: To gain insight into the cardioprotective effects of synthetic 17,18-EEQ-agonists, ischemia-reperfusion studies were performed in isolated mouse hearts of 12-14 week old male C57BL6/n animals. Briefly, mice were anesthetized with i.p. injected pentobarbital/heparin, hearts were rapidly removed and perfused in a Langendorff apparatus. Excised hearts were put in ice-cold Krebs-Henseleit buffer and aortas were cannulated. Modified Krebs-Henseleit buffer for retrograde perfusion contained 118 mM NaCl, 3.5 mM KCl, 1.3 mM MgSO4, 2.5 mM CaCl2, 24.7 mM NaHCO3, 1.4 mM KH2PO4 and 11 mM glucose, was aerated with 95% O2-5% CO2 and kept at constant temperature of 37° C. and pH 7.3. Perfusion pressure was adjusted to 80 mmHg and a latex balloon connected to a pressure transducer was inserted in the left ventricle through the left atrium. Hearts were perfused with buffer for a 15 minutes stabilisation period, followed by 10 minutes perfusion with either the agonistic analog Comp-02 (100 nM) or vehicle (0.9% NaCl in water). Afterwards hearts were subjected to 35 minutes global no-flow ischemia followed by 40 minutes of reperfusion. Compound or vehicle perfusion was kept constant during the reperfusion time. To analyse recovery of contractile function the left ventricular developed pressure (LVdP) at different time points during reperfusion was measured and expressed as percentage of pre-ischemic LVdP. Exclusion criteria for the hearts were: (i) a LVdP below 60 mmHg at the end of the stabilisation phase (baseline measurement), (ii) a heart rate below 260 bpm, (iii) coronary flow below 1.5 or over 4 ml/min and finally (iv) severe sustained arrhythmias during the stabilisation phase. The results are presented in FIG. 1 and expressed as mean±SEM percentage of pre-ischemic LVdP. Data were analysed by two-tailed unpaired Student's t test and considered significant if p<0.05*.

[3] = single i.v. injection 2 mg/kg, vs vehicle

## CNC(=O)C(=O)NCCCC/C=C\CCCCCCCOCC(=O)O [Comp-02, 2-((13-(2-(methylamino)-2-oxoacetamido)tridec-8(Z)-en-1-yl)oxy)acetic acid]
Male B16 mice; single i.v. bolus injection, 2 mg/kg body weight
  obvious negative side effects: did not induce any obvious negative side effects
Male B16 mice; [3]
  reduction of the inducibility of sustained arrhythmia episodes: 62%
  severity of induced atrial fibrillation episodes: significantly reduced
  sum of totally induced atrial fibrillation episodes (atrial fibrillation burden): reduced significantly
Aqueous solubility; 37° C.
  solubility in deionised water relative to Comp-06: ~10 ×
Aqueous solubility; read-out: Average solubility at 37° C.
  solubility at 24 h: 68 µg/mL (≈ 191 µM)
Aqueous solubility; read-out: Highest solubility value at 37° C.
  solubility at 24 h: 75 µg/mL (≈ 210 µM)
Aqueous solubility; read-out: Lowest solubility value at 37° C.
  solubility at 24 h: 59 µg/mL (≈ 166 µM)
[1]; iv, 2 mg/kg
  AUC(0-inf): 524 ng·h/mL
  bioavailability: 100%
[1]; po, 8 mg/kg
  AUC(0-inf): 1820 ng·h/mL
  Cmax, maximal observed plasma concentration: 903.8 ng/mL
  Tmax: 18 min
  bioavailability: 87%
[1]; po, 8 mg/kg, Cmax, maximal observed plasma concentration
  Cmax: 903 ng/mL
[2]; 100 nM, 10 minutes reperfusion
  functional recovery, LVdP as percentage of pre-ischemic LVdP: 18%
[2]; 100 nM, 40 minutes reperfusion
  functional recovery, LVdP as percentage of pre-ischemic LVdP: 59%
[2]; 100 nM, vs control group
  post-ischemic recovery of contractility function, in words: significantly improved post-ischemic recovery of contractility function
[2]; continuous infusion of 100 nM
  obvious negative side effects: did not induce any obvious negative side effects
